Experiment [1] deals with Recombinant ROCK2 (amino acids 1-552) (Homo sapiens (Human), UniProt O75116). Nature of the experiment: Z′-Lyte kinase assay, ROCK2. Format: biochemical. The settings on record: for inhibition at 1 µM: 1 μM compound, read-out: ROCK2 % inh. @ [conc]. The procedure, abridged: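 Recombinant human ROCK1 (aa 1-535) or ROCK2 (aa 1-552) activity read by Z′-Lyte kinase assay. Percent inhibition at 1 μM compound was normalized to DMSO control; IC50 from 9-point 2-fold serial dilutions by nonlinear regression.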
Chain of Recombinant ROCK2 (amino acids 1-552) (O75116 1-552): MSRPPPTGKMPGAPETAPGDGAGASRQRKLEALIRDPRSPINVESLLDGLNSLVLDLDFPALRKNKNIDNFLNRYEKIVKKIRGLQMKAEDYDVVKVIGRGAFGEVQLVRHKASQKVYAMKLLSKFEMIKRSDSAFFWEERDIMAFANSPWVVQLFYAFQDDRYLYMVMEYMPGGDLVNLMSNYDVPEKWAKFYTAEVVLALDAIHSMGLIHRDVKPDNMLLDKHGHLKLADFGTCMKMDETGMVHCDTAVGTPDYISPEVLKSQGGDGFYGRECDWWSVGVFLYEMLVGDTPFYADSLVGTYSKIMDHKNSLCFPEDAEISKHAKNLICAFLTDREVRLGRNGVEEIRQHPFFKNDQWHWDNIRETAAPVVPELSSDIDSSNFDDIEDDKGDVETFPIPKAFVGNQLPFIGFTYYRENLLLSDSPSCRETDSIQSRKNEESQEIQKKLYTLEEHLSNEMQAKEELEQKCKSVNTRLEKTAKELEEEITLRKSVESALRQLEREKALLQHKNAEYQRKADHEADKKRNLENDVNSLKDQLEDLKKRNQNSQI

In experiment [2] the test system is ppMlc (T18/S19) levels in A7R5 cells. Nature of the experiment: A7R5 in-cell ELISA (pMLC). The format is cell-based, Rat. To be noted: Rattus norvegicus, A7R5, A7R5 cells; for inhibition at 10 µM: 10 μM compound; for inhibition at 10 µM / inhibition at 1 µM: read-out: pMLC % inh A7R5 @ [conc]; for IC50: ppMlc (T18/S19); for inhibition at 1 µM: 1 μM compound. The procedure, abridged: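 A7R5 rat aortic smooth muscle cells seeded 24 h, then treated 90 min with a 9-point 2-fold compound dilution series. Fixed cells probed for ppMlc (T18/S19) by colorimetric in-cell ELISA; cellular IC50 from nonlinear regression curve fit.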
For orientation: In an ELISA, binding on a coated surface is turned into a signal by an enzyme label.

[3] abbreviates: 9 points 2-fold serial dilution.

For 31 molecules, inhibition and IC50 results are on record in patent publication US11613531B2, “Inhibitors of RHO associated coiled-coil containing protein kinase” (Kadmon Corporation, LLC, priority 2017, dated 2023).

The structures appear in SMILES notation. Where two headings read alike, the source gives them in different places.

Usually IC50 stands for the concentration needed to halve the response being measured. On to `Cc1cc(Nc2ccc3[nH]ncc3c2)nc(N2CCNC(C)CC2)n1` (stereo not drawn) [Example 116, N-(6-methyl-2-(5-methyl-1,4-diazepan-1-yl)pyrimidin-4-yl)-1H-indazol-5-amine], for which the inhibition at 1 µM in experiment [1] is 81.9%. Besides, in experiment [2], the inhibition at 10 µM amounted to 51.6% and the IC50 was 1020 nM.

For the molecule `Cc1cc(Nc2ccc3[nH]ncc3c2)nc(N2CC3CCC(C2)N3)n1` [Example 119, N-(2-(3,8-diazabicyclo[3.2.1]octan-3-yl)-6-methylpyrimidin-4-yl)-1H-indazol-5-amine], the inhibition at 1 µM in experiment [1] came out at 90.1%; in experiment [2] it was 17.7%.

In the case of `Cc1cc(Nc2ccc3[nH]ncc3c2)nc(N2CC3CC(C2)N3)n1` [Example 120, N-(2-(3,6-diazabicyclo[3.1.1]heptan-3-yl)-6-methylpyrimidin-4-yl)-1H-indazol-5-amine], the figures for the inhibition at 1 µM in experiment [1] and in experiment [2] were 93.1% and 23.4%, respectively.

For `Cc1cc(Nc2ccc3[nH]ncc3c2)nc(N2CC3CNCC(C3)C2)n1` [Example 130, N-(2-(3,7-diazabicyclo[3.3.1]nonan-3-yl)-6-methylpyrimidin-4-yl)-1H-indazol-5-amine], the values for the inhibition at 1 µM in experiment [1] and in experiment [2] were 93.4% and 27.7%, respectively.

On to `Cc1cc(Nc2ccc3[nH]ncc3c2)nc(N2CCC3NCCC3C2)n1` (stereo not drawn) [Example 131, N-(6-methyl-2-(octahydro-5H-pyrrolo[3,2-c]pyridin-5-yl)pyrimidin-4-yl)-1H-indazol-5-amine], for which the inhibition at 1 µM in experiment [1] stood at 74.1%; in experiment [2], 12.7%.

Consider `Cc1cc(Nc2ccc3[nH]ncc3c2)nc(N2CCC3CNCC3CC2)n1` (stereo not drawn) [Example 132, N-(6-methyl-2-(octahydropyrrolo[3,4-d]azepin-6(1H)-yl)pyrimidin-4-yl)-1H-indazol-5-amine], for which, in experiment [1], the IC50 is 245 nM and the inhibition at 1 µM amounted to 81.8%. In addition, the inhibition at 1 µM in experiment [2] was determined as 19.6%.

With `Cc1cc(Nc2ccc3[nH]ncc3c2)nc(N2CCN3CCNCC3C2)n1` (stereo not drawn) [Example 133, N-(6-methyl-2-(octahydro-2H-pyrazino[1,2-a]pyrazin-2-yl)pyrimidin-4-yl)-1H-indazol-5-amine], the inhibition at 1 µM in experiment [1] is 15.2%; in experiment [2] it was 3.1%.

As for `Cc1cc(Nc2ccc3[nH]ncc3c2)nc(N2CC3CNC3C2)n1` (stereo not drawn) [Example 134, N-(2-(3,6-diazabicyclo[3.2.0]heptan-3-yl)-6-methylpyrimidin-4-yl)-1H-indazol-5-amine], the half-inhibitory concentration (IC50) in experiment [1] turned out to be 11 nM. In addition, the inhibition at 1 µM in experiment [2] was 29.9%.

Regarding `Cc1cc(Nc2ccc3[nH]ncc3c2)nc(N2CC(C3CCNCC3)c3ccccc32)n1` (stereo not drawn) [Example 137, N-(6-methyl-2-(3-(piperidin-4-yl)indolin-1-yl)pyrimidin-4-yl)-1H-indazol-5-amine], the inhibition at 1 µM stood at 21.6% in experiment [1] and 24.4% in experiment [2].

Consider `Cc1cc(Nc2ccc3[nH]ncc3c2)nc(N2CC3(CCNCC3)c3ccccc32)n1` [Example 138, N-(6-methyl-2-(spiro[indoline-3,4′-piperidin]-1-yl)pyrimidin-4-yl)-1H-indazol-5-amine], for which the inhibition at 1 µM in experiment [1] amounted to 9.1%; in experiment [2], 15.2%.

In the case of `CC1CN(c2ncc(F)c(Nc3ccc4[nH]ncc4c3)n2)CCN1` (stereo not drawn) [Example 140, N-(5-fluoro-2-(3-methylpiperazin-1-yl)pyrimidin-4-yl)-1H-indazol-5-amine], in experiment [1], the inhibition at 1 µM is 88%. For the same molecule, in experiment [2], the inhibition at 10 µM was 63.5% and the half-maximal inhibitory concentration (IC50) came out at 734 nM.

Turning to `CCC1CNCCN1c1ncc(F)c(Nc2ccc3[nH]ncc3c2)n1` (stereo not drawn) [Example 143, N-(2-(2-ethylpiperazin-1-yl)-5-fluoropyrimidin-4-yl)-1H-indazol-5-amine], the inhibition at 1 µM in experiment [1] is 59.3%. In experiment [2], the inhibition at 10 µM amounted to 49.8% and the half-maximal inhibitory concentration (IC50) worked out at 2150 nM.

Regarding `CCC1CCN(c2ncc(F)c(Nc3ccc4[nH]ncc4c3)n2)CCN1` (stereo not drawn) [Example 146, N-(2-(5-ethyl-1,4-diazepan-1-yl)-5-fluoropyrimidin-4-yl)-1H-indazol-5-amine], the inhibition at 1 µM in experiment [1] was determined as 71.8%. In experiment [2], the inhibition at 10 µM came out at 50.2% and the IC50 turned out to be 2060 nM.

In the case of `CC(C)C1CN(c2ncc(F)c(Nc3ccc4[nH]ncc4c3)n2)CCN1` (stereo not drawn) [Example 147, N-(5-fluoro-2-(3-isopropylpiperazin-1-yl)pyrimidin-4-yl)-1H-indazol-5-amine], the inhibition at 1 µM in experiment [1] amounted to 37.6%. Also, the inhibition at 10 µM in experiment [2] came to 47.8%.

Turning to `CCC1CN(c2ncc(F)c(Nc3ccc4[nH]ncc4c3)n2)CCCN1` (stereo not drawn) [Example 148, N-(2-(3-ethyl-1,4-diazepan-1-yl)-5-fluoropyrimidin-4-yl)-1H-indazol-5-amine], in experiment [1], the inhibition at 1 µM is 55.1%. In experiment [2], the inhibition at 10 µM is 46%.

Consider `CCC1CN(c2ncc(F)c(Nc3ccc4[nH]ncc4c3)n2)CCN1` (stereo not drawn) [Example 149, N-(2-(3-ethylpiperazin-1-yl)-5-fluoropyrimidin-4-yl)-1H-indazol-5-amine], for which the inhibition at 1 µM in experiment [1] stood at 71.4%. Besides, the inhibition at 10 µM in experiment [2] was found to be 49.4%.

For `CC1CN(c2ncc(F)c(Nc3ccc4[nH]ncc4c3)n2)CC(C)N1` (stereo not drawn) [Example 150, N-(2-(3,5-dimethylpiperazin-1-yl)-5-fluoropyrimidin-4-yl)-1H-indazol-5-amine], the inhibition at 1 µM in experiment [1] came to 43.2%. Moreover, in experiment [2], the inhibition at 10 µM is 44.4% and the half-maximal inhibitory concentration (IC50) was 4970 nM.

Consider `CC1CN(c2ncc(F)c(Nc3ccc4[nH]ncc4c3)n2)CCCN1` (stereo not drawn) [Example 151, N-(5-fluoro-2-(3-methyl-1,4-diazepan-1-yl)pyrimidin-4-yl)-1H-indazol-5-amine], for which the inhibition at 1 µM in experiment [1] is 87.4%. Moreover, the half-maximal inhibitory concentration (IC50) in experiment [1] (setting [3]) stood at 80 nM. The inhibition at 10 µM in experiment [2] came to 55.1%.

As to `CC1CCN(c2ncc(F)c(Nc3ccc4[nH]ncc4c3)n2)CCN1` (stereo not drawn) [Example 152, N-(5-fluoro-2-(5-methyl-1,4-diazepan-1-yl)pyrimidin-4-yl)-1H-indazol-5-amine], the inhibition at 1 µM in experiment [1] amounted to 77%. Further, in experiment [2], the inhibition at 10 µM was 50.7% and the IC50 was 1030 nM.

As for `Fc1cnc(N2CCNC3(CC3)C2)nc1Nc1ccc2[nH]ncc2c1` [Example 153, N-(5-fluoro-2-(4,7-diazaspiro[2.5]octan-7-yl)pyrimidin-4-yl)-1H-indazol-5-amine], the half-inhibitory concentration (IC50) in experiment [1] (setting [3]) is 556 nM. In experiment [2], the inhibition at 1 µM amounted to 23.8%.

As for `CC1CN(c2ncc(F)c(Nc3ccc4[nH]ncc4c3)n2)C(C)CN1` (stereo not drawn) [Example 155, N-(2-(2,5-dimethylpiperazin-1-yl)-5-fluoropyrimidin-4-yl)-1H-indazol-5-amine], the results for the inhibition at 1 µM in experiment [1] and in experiment [2] were 82.1% and 25%, respectively.

As to `Fc1cnc(N2CC3CC(C2)N3)nc1Nc1ccc2[nH]ncc2c1` [Example 157, N-(2-(3,6-diazabicyclo[3.1.1]heptan-3-yl)-5-fluoropyrimidin-4-yl)-1H-indazol-5-amine], the half-maximal inhibitory concentration (IC50) in experiment [1] (setting [3]) worked out at 89 nM. Besides, the inhibition at 1 µM in experiment [2] amounted to 27.2%.

For `Fc1cnc(N2CC3CNCC(C3)C2)nc1Nc1ccc2[nH]ncc2c1` [Example 167, N-(2-(3,7-diazabicyclo[3.3.1]nonan-3-yl)-5-fluoropyrimidin-4-yl)-1H-indazol-5-amine], the inhibition at 1 µM stood at 88.2% in experiment [1] and 22.5% in experiment [2].

`Fc1cnc(N2CCN3CCNCC3C2)nc1Nc1ccc2[nH]ncc2c1` (stereo not drawn) [Example 173, N-(5-fluoro-2-(octahydro-2H-pyrazino[1,2-a]pyrazin-2-yl)pyrimidin-4-yl)-1H-indazol-5-amine]: the inhibition at 1 µM in experiment [1] is 17.6%; in experiment [2] it was 1.3%.

Turning to `Fc1cnc(N2CC3CNC3C2)nc1Nc1ccc2[nH]ncc2c1` (stereo not drawn) [Example 174, N-(2-(3,6-diazabicyclo[3.2.0]heptan-3-yl)-5-fluoropyrimidin-4-yl)-1H-indazol-5-amine], in experiment [1], the half-inhibitory concentration (IC50) is 35 nM. In experiment [2], the inhibition at 1 µM came to 26.3%.

For `Fc1cnc(N2CC3(CCNCC3)c3ccccc32)nc1Nc1ccc2[nH]ncc2c1` [Example 176, N-(5-fluoro-2-(spiro[indoline-3,4′-piperidin]-1-yl)pyrimidin-4-yl)-1H-indazol-5-amine], the inhibition at 1 µM is 0% in experiment [1] and 14.5% in experiment [2].

Consider `Fc1cnc(N2CC(C3CCCNC3)c3ccccc32)nc1Nc1ccc2[nH]ncc2c1` (stereo not drawn) [Example 177, N-(5-fluoro-2-(3-(piperidin-3-yl)indolin-1-yl)pyrimidin-4-yl)-1H-indazol-5-amine], for which the inhibition at 1 µM in experiment [1] came to 9.5%; in experiment [2], 10.2%.

As to `CC1CNCCN1c1ncc(Cl)c(Nc2ccc3[nH]ncc3c2)n1` (stereo not drawn) [Example 179, N-(5-chloro-2-(2-methylpiperazin-1-yl)pyrimidin-4-yl)-1H-indazol-5-amine], the inhibition at 1 µM in experiment [1] amounted to 77.6%. For the same molecule, in experiment [2], the inhibition at 10 µM amounted to 67.4% and the IC50 amounted to 1540 nM.

Take `CC1CN(c2ncc(Cl)c(Nc3ccc4[nH]ncc4c3)n2)CCN1` (stereo not drawn) [Example 180, N-(5-chloro-2-(3-methylpiperazin-1-yl)pyrimidin-4-yl)-1H-indazol-5-amine]: the inhibition at 1 µM in experiment [1] worked out at 73.8%. In experiment [2], the inhibition at 10 µM was 62.6% and the 50% inhibitory concentration (IC50) worked out at 1460 nM.

Regarding `CC(C)C1CN(c2ncc(Cl)c(Nc3ccc4[nH]ncc4c3)n2)CCN1` (stereo not drawn) [Example 185, N-(5-chloro-2-(3-isopropylpiperazin-1-yl)pyrimidin-4-yl)-1H-indazol-5-amine], in experiment [1], the inhibition at 1 µM was 19.7%. Further, the inhibition at 10 µM in experiment [2] stood at 41.6%.

For `CCC1CN(c2ncc(Cl)c(Nc3ccc4[nH]ncc4c3)n2)CCCN1` (stereo not drawn) [Example 186, N-(5-chloro-2-(3-ethyl 4-diazepan-1-yl)pyrimidin-4-yl)-1H-indazol-5-amine], in experiment [1], the inhibition at 1 µM is 47.8%. Further, the inhibition at 10 µM in experiment [2] turned out to be 47.7%.
